{
  "source": "paper PMC13231895",
  "about": "(Antimicrobial Agents and Chemotherapy, 2026)",
  "assay": "Plasma pharmacokinetics after single […] IV infusion of nacubactam 2 g coadministered with meropenem 2 g (Phase 1)",
  "assay_type": "in vivo, healthy adult male and female volunteers",
  "conditions": "n = 21, geometric mean (CV%), 2 g nacubactam + 2 g meropenem IV",
  "description": "The study consisted of a screening visit (Days −28 to −1), a treatment and sampling period (Day 1), and a safety follow-up visit (Days 7–14). […] The two drugs were administered concurrently as separate solutions through two separate lines via a large bore, double-lumen catheter, under the supervision of study personnel. […] While all participants received the same study drug treatment and followed the same blood sampling scheme, each individual was assigned to one of five possible timepoints (2, 3, 4, 6, or 8 h after the start of study drug administration) for the BAL procedure. Equal numbers of participants were assigned to each timepoint, and assignment of individual participants was at the discretion of the investigator. […] An additional plasma sample was taken at the same time as part of the BAL procedure to measure urea. The plasma samples were stored at −80°C pending analysis. […] PK parameters were estimated by non-compartmental analysis using Phoenix WinNonlin (version 6.4; Certara USA, Inc.) by Covance.",
  "data": [
    {"smiles": "NCCONC(=O)[C@@H]1CC[C@@H]2CN1C(=O)N2OS(=O)(=O)O", "note": "[Nacubactam]", "values": [
      {"measurement": "AUC0–8h", "result": "275 (19) µg·h/mL"}
    ]}
  ]
}
